Like-named read-outs stand apart in the source and are kept apart here.
What was measured:
Type in all cases: biochemical
[1] = PI 3-Kinase (human) HTRF assay, p110δ/p85α; details: read-out: PI3K γ IC50
PI3K α = PI3K α (Homo sapiens (Human), UniProt P42336); test: PI 3-Kinase (human) HTRF assay, p110α/p85α
PI3K γ = PI3K γ (Homo sapiens (Human), UniProt P48736); test: PI 3-Kinase (human) HTRF assay, p110γ
PI3K β = PI3K β (Homo sapiens (Human), UniProt P42338); test: PI 3-Kinase (human) HTRF assay, p110β/p85α
Chain of PI3K β (P42338 whole entry): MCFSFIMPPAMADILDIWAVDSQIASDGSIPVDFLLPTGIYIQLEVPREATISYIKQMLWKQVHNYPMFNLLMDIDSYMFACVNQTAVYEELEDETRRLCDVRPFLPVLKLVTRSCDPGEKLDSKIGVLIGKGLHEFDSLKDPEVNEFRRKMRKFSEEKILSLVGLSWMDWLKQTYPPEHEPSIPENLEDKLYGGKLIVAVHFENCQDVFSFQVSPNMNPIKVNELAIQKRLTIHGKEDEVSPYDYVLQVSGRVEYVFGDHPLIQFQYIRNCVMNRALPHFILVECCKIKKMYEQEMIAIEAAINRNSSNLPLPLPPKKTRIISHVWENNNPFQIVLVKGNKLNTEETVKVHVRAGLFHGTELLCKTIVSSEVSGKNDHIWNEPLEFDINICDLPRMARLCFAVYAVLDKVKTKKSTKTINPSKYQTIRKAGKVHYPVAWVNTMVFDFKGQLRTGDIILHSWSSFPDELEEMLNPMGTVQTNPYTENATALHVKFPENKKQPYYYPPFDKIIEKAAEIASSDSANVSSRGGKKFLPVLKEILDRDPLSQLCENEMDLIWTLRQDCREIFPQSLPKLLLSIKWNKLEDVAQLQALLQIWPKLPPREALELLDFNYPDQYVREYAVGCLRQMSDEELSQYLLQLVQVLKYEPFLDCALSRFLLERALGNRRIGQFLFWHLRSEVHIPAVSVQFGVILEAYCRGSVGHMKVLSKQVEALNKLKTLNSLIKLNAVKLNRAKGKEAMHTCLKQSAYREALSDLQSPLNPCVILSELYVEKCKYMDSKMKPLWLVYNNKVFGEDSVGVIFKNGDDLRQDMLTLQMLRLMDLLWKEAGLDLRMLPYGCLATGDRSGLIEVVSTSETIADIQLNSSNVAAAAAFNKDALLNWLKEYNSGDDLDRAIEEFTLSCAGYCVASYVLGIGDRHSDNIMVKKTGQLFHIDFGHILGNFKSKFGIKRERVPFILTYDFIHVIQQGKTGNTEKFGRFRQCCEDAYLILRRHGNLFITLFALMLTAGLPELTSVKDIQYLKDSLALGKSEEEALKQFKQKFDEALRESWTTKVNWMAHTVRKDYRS
Chain of PI3K β (P27986 whole entry partner): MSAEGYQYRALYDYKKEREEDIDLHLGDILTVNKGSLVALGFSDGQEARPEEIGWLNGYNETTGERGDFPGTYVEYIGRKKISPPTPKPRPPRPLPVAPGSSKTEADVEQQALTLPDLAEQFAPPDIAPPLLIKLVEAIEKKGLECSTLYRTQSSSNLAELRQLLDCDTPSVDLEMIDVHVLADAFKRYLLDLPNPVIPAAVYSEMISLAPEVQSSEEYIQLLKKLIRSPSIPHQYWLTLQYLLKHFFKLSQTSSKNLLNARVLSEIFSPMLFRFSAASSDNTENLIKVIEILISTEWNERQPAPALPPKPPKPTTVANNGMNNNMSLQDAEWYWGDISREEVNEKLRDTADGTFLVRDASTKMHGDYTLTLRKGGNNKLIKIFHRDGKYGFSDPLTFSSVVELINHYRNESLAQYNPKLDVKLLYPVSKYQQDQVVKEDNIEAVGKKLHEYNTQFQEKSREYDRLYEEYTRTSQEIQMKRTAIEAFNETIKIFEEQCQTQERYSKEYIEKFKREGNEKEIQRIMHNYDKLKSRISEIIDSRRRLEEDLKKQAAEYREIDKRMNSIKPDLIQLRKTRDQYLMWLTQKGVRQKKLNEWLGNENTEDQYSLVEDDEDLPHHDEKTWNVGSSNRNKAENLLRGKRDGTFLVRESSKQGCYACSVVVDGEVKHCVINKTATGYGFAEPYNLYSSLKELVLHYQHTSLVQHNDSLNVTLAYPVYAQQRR

Chain of PI3K α (P42336 whole entry): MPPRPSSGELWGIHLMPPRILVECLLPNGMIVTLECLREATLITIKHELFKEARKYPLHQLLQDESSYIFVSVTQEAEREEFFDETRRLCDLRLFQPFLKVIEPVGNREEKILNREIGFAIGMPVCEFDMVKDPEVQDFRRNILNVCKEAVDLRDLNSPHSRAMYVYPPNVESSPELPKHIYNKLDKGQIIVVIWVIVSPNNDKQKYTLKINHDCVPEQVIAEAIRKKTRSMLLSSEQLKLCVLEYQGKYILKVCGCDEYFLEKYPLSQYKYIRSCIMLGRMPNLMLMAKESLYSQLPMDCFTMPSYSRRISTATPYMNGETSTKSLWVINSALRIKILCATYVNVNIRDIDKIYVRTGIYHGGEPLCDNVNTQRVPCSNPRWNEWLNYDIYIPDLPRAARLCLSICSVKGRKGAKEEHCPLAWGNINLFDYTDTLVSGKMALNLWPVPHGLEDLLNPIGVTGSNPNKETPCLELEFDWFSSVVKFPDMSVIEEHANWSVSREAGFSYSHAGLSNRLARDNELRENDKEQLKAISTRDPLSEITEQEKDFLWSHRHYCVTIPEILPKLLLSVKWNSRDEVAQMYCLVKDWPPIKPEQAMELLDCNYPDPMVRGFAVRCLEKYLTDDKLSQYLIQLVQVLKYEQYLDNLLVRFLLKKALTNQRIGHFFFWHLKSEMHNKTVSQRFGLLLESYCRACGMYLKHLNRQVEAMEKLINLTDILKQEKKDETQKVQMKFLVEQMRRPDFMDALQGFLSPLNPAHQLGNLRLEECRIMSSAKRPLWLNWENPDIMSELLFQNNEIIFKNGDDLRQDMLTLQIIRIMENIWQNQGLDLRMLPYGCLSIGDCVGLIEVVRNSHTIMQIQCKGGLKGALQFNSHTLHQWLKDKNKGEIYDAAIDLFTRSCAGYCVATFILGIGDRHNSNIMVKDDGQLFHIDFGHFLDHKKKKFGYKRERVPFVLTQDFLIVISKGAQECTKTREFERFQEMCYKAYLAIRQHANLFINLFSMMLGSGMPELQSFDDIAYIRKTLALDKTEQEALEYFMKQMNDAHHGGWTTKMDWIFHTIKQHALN
Chain of PI3K α (P27986 whole entry partner): as the sequence (P27986 whole entry partner) above

| SMILES | IC50 [1] [µM] | IC50 (PI3K α) [µM] | IC50 (PI3K γ; read-out: PI3K δ IC50) [µM] | IC50 (PI3K β) [µM] | IC50 (PI3K γ; read-out: PI3K γ IC50) [µM] |
| --- | --- | --- | --- | --- | --- |
| Nc1nc2cc(-c3ccc4ncc(C(=O)N5CCCCC5)n4c3)ccc2o1 | > 10 | < 1 | < 10 | < 10 | – |
| CN1CCN(c2cnc3ccc(-c4ccc5oc(N)nc5c4)cc3n2)C(=O)C1 | – | < 10 | > 10 | – | – |
| Nc1nc2c(-c3ccc4ncc(C(=O)N5CCOCC5)n4c3)cccc2o1 | > 10 | < 1 | < 10 | < 10 | – |
| Nc1nc2cc(-c3ccc4ncc(C(=O)N5CCC(N6CC(F)(F)C6)C5)n4c3)ccc2o1 (centres unmarked) | > 10 | < 1 | < 10 | > 10 | – |
| Nc1nc2cc(-c3ccc4ncc(C(=O)N5CCC6(C5)OCCO6)n4c3)ccc2o1 | > 10 | < 1 | < 10 | > 10 | – |
| Nc1nc2cc(-c3ccc4ncc(C(=O)N5CCC(F)(F)CC5)n4c3)ccc2o1 | > 10 | < 1 | < 10 | > 10 | – |
| Nc1nc2cc(-c3ccc4ncc(C(=O)N5CCC(F)CC5)n4c3)ccc2o1 | > 10 | < 1 | < 0.1 | > 10 | – |
| Nc1nc2cc(-c3ccc4ncc(C(=O)N5CC6CCC(C5)O6)n4c3)ccc2o1 | > 10 | < 1 | < 0.1 | < 10 | – |
| O=C(c1cnc2ccc(-c3ccc4c(Nc5ccccc5)nsc4c3)cn12)N1CCOCC1 | > 10 | > 10 | > 10 | > 10 | – |
| Cc1cc2ncc(C(=O)N3CCOCC3)n2cc1-c1ccc2oc(N)nc2c1 | > 10 | > 10 | > 10 | > 10 | – |
| O=C(c1cnc2ccc(-c3ccc4c(Nc5ccccc5)noc4c3)cn12)N1CCOCC1 | > 10 | > 10 | > 10 | > 10 | – |
| CC1(C)CN(C(=O)c2cnc3ccc(-c4ccc5oc(N)nc5c4)cn23)CCO1 | > 10 | < 1 | < 10 | > 10 | – |
| CC1(C)COCCN1C(=O)c1cnc2ccc(-c3ccc4oc(N)nc4c3)cn12 | > 10 | < 1 | > 10 | > 10 | – |
| O=C(c1cnc2ccc(-c3cnc(Cl)c4[nH]ncc34)cn12)N1CCOCC1 | > 10 | < 1 | > 10 | > 10 | – |
| COc1ncc(-c2ccc3ncc(C(=O)N4CCOCC4)n3c2)c2cn[nH]c12 | < 10 | < 1 | < 10 | > 10 | – |
| CN1CCN(n2cnc3ccc(-c4ccc5oc(N)nc5c4)cc3c2=O)CC1 | > 10 | < 1 | > 10 | > 10 | – |
| CC(C)N1CCC(n2cnc3ccc(-c4cncc(NS(=O)(=O)c5ccc(F)cc5F)c4)cc3c2=O)CC1 | < 10 | < 1 | < 1 | < 10 | – |
| CC(C)N1CCC(n2cnc3ccc(-c4cncc(NS(C)(=O)=O)c4)cc3c2=O)CC1 | > 10 | > 10 | > 10 | > 10 | – |
| CC(C)N1CCC(n2cnc3ccc(-c4cnc(Cl)c(NS(C)(=O)=O)c4)cc3c2=O)CC1 | < 0.1 | < 0.1 | < 0.1 | < 1 | – |
| COc1ncc(-c2ccc3ncn(C4CCN(C)CC4)c(=O)c3c2)cc1NS(=O)(=O)c1ccccc1 | < 0.1 | < 0.1 | < 1 | < 0.1 | – |
| COc1ncc(-c2ccc3ncn(C4CCN(C)CC4)c(=O)c3c2)cc1NS(C)(=O)=O | – | < 0.1 | < 10 | < 1 | – |
| CN1CCC(n2cnc3ccc(-c4cnc(Cl)c(NS(C)(=O)=O)c4)cc3c2=O)CC1 | < 1 | < 0.1 | > 10 | < 10 | – |
| CN1CCC(n2cnc3ccc(-c4cnc(Cl)c(NS(=O)(=O)c5ccccc5)c4)cc3c2=O)CC1 | < 0.1 | < 0.1 | < 1 | < 0.1 | – |
| CN1CC(n2cnc3ccc(-c4ccc5oc(N)nc5c4)cc3c2=O)C1 | > 10 | < 1 | > 10 | < 10 | – |
| [2H]C1([2H])OC([2H])([2H])C([2H])([2H])N(C(=O)c2cnc3ccc(-c4ccc5oc(N)nc5c4)cn23)C1([2H])[2H] | > 10 | < 1 | < 10 | > 10 | – |
| C[C@@H]1CN(C2CN(c3cnc4ccc(-c5ccc6oc(N)nc6c5)nc4n3)C2)CCN1C | – | < 0.1 | – | > 10 | < 10 |
| C[C@@H]1CN(c2cnc3ccc(-c4ccc5oc(N)nc5c4)nc3n2)CCN1 | – | < 0.1 | – | < 0.1 | < 1 |
| CN(C)CC(=O)N1CCN(c2cnc3ccc(-c4ccc5oc(N)nc5c4)cc3n2)CC1 [drawing 407] | < 1 | – | < 1 | – | – |

Other lines, results leading:

| IC50 [1] [µM] | IC50 (PI3K α) [µM] | IC50 (PI3K γ; read-out: PI3K δ IC50) [µM] | IC50 (PI3K β) [µM] | IC50 (PI3K γ; read-out: PI3K γ IC50) [µM] | SMILES |
| --- | --- | --- | --- | --- | --- |
| < 10 | < 0.1 | < 0.1 | < 10 | – | Nc1nc2cc(-c3ccc4ncc(C(=O)N5CCC5)n4c3)ccc2o1 |
| < 10 | < 0.1 | < 1 | < 10 | – | CS(=O)(=O)CCN1CCN(C(=O)c2cnc3ccc(-c4ccc5oc(N)nc5c4)cn23)CC1 |
| < 0.1 | < 0.1 | < 0.1 | < 10 | – | CS(=O)(=O)CCN1CCC(NC(=O)c2cnc3ccc(-c4ccc5oc(N)nc5c4)cn23)CC1 |
| > 10 | < 0.1 | – | < 10 | – | CC1CN(C(=O)c2cnc3ccc(-c4ccc5oc(N)nc5c4)cn23)CCO1 (centres unmarked) |
| < 10 | < 0.1 | – | < 10 | – | Nc1nc2cc(-c3ccc4ncc(C(=O)N5CCC(O)C5)n4c3)ccc2o1 (centres unmarked) |
| > 10 | < 0.1 | – | > 10 | – | Cc1c(-c2ccc3oc(N)nc3c2)ccc2ncc(N3CC(N4CCNCC4)C3)nc12 |
| < 10 | < 0.1 | < 1 | > 10 | – | Nc1nc2cc(-c3ccc4ncc(C(=O)N5CC(N6CCC(F)(F)C6)C5)n4c3)ccc2o1 |
| > 10 | < 0.1 | > 10 | > 10 | – | O=C(c1cnc2ccc(-c3cncc4[nH]ncc34)cn12)N1CCOCC1 |
| < 1 | < 0.1 | < 10 | < 10 | – | C[C@@H]1CN(C2CN(C(=O)c3cnc4ccc(-c5ccc6oc(N)nc6c5)cn34)C2)CCN1C |
| < 1 | < 0.1 | < 10 | < 10 | – | C[C@H]1CN(C2CN(C(=O)c3cnc4ccc(-c5ccc6oc(N)nc6c5)cn34)C2)CCN1 |
| < 1 | < 0.1 | < 10 | < 10 | – | C[C@@H]1CN(C2CN(C(=O)c3cnc4ccc(-c5ccc6oc(N)nc6c5)cn34)C2)CCN1 |
| < 1 | < 0.1 | < 10 | < 10 | – | C[C@H]1CN(C2CN(C(=O)c3cnc4ccc(-c5ccc6oc(N)nc6c5)cn34)C2)CCN1C |
| < 0.1 | < 0.1 | < 1 | < 0.1 | – | CC(C)N1CCC(n2cnc3ccc(-c4cnc(Cl)c(NS(=O)(=O)c5ccccc5)c4)cc3c2=O)CC1 |
| < 0.1 | < 0.1 | < 0.1 | < 0.1 | – | COc1ncc(-c2ccc3ncn(C4CCN(C(C)C)CC4)c(=O)c3c2)cc1NS(=O)(=O)c1ccccc1 |

Reference: patent publication US9682141B2, “Combination of kinase inhibitors and uses thereof” (INTELLIKINE LLC, priority 2011, dated 2017)
